{
  "source": "ChEMBL document CHEMBL4261560",
  "about": "“Structure-optimized dihydropyranoindole derivative GIBH-LRA002 potentially reactivated viral latency in primary CD4+ T lymphocytes of chronic HIV-1 patients” (Medchemcomm, 2017)",
  "key": {"[1]": {"test_system": "Human immunodeficiency virus 1", "assay": "Reactivation of latent HIV1 LTR-GFP infected in human Jurkat-Lat A10.6 cells assessed as increase in GFP-positive cells after 24 hrs by flow cytometry relative to control", "assay_type": "functional"}, "[2]": {"assay": "Cytotoxicity against human J-Lat cells", "assay_type": "cell-based"}, "[3]": {"assay": "Cytotoxicity against human J-Lat cells at 100 uM", "assay_type": "cell-based"}, "[4]": {"test_system": "Human immunodeficiency virus 1", "assay": "Reactivation of latent HIV1 LTR-GFP infected in human Jurkat-Lat A10.6 cells assessed as GFP-positive cells after 24 hrs by flow cytometry (reference value: 5.06%)", "assay_type": "functional"}, "[5]": {"test_system": "Simian immunodeficiency virus", "assay": "Reactivation of Simian immunodeficiency virus mac239 latent provirus in primary CD4+ T lymphocytes isolated from infected rhesus monkey PBMC assessed as increase in usRNA level after 24 hrs by RT-PCR analysis", "assay_type": "functional, organism-based"}, "[6]": {"test_system": "Simian immunodeficiency virus", "assay": "Reactivation of Simian immunodeficiency virus mac239 latent provirus in primary CD4+ T lymphocytes isolated from infected rhesus monkey PBMC assessed as increase in msRNA level after 24 hrs by RT-PCR analysis", "assay_type": "functional, organism-based"}, "[7]": {"test_system": "Human immunodeficiency virus", "assay": "Reactivation of HIV latent provirus in primary CD4+ T lymphocytes isolated from infected human PBMC assessed as increase in usRNA level after 24 hrs by RT-PCR analysis", "assay_type": "functional, organism-based"}, "[8]": {"test_system": "Human immunodeficiency virus", "assay": "Reactivation of HIV latent provirus in primary CD4+ T lymphocytes isolated from infected human PBMC assessed as increase in msRNA level after 24 hrs by RT-PCR analysis", "assay_type": "functional, organism-based"}, "[9]": {"test_system": "T cell", "assay": "Induction of monkey PBMC CD3+ T cells activation assessed as increase in CD69 expression up to 500 uM after 24 hrs by flow cytometry", "assay_type": "cell-based, Macaca mulatta", "conditions": "rhesus monkey"}, "[10]": {"test_system": "Human immunodeficiency virus 1", "assay": "Reactivation of latent HIV1 LTR-GFP infected in human Jurkat-Lat A10.6 cells assessed as GFP-positive cells at 100 uM after 24 hrs by flow cytometry (reference value: 5.06%)", "assay_type": "functional"}, "[11]": {"test_system": "Human immunodeficiency virus 1", "assay": "Reactivation of latent HIV1 LTR-GFP infected in human Jurkat-Lat A10.6 cells assessed as GFP-positive cells at 10 uM after 24 hrs by flow cytometry (reference value: 5.06%)", "assay_type": "functional"}, "[12]": {"test_system": "T cell", "assay": "Induction of monkey PBMC CD3+ T cells activation assessed as increase in CD25 expression up to 500 uM after 24 hrs by flow cytometry", "assay_type": "cell-based, Macaca mulatta", "conditions": "rhesus monkey"}, "[13]": {"test_system": "T cell", "assay": "Induction of monkey PBMC CD4+ T cells activation assessed as increase in CCR5 expression up to 500 uM after 24 hrs by flow cytometry", "assay_type": "cell-based, Macaca mulatta", "conditions": "rhesus monkey"}, "[14]": {"test_system": "T cell", "assay": "Induction of monkey PBMC CD3+ T cells activation assessed as increase in CCR5 expression up to 500 uM after 24 hrs by flow cytometry", "assay_type": "cell-based, Macaca mulatta", "conditions": "rhesus monkey"}, "[15]": {"test_system": "PBMC", "assay": "Cytotoxicity against PBMC (unknown origin) assessed as reduction in cell viability up to 500 uM by CCK8 assay", "assay_type": "cell-based"}, "[16]": {"test_system": "Human immunodeficiency virus", "assay": "Reactivation of HIV latent provirus in primary CD4+ T lymphocytes isolated from infected human PBMC assessed as increase in msRNA level at 10 to 100 uM after 24 hrs by RT-PCR analysis", "assay_type": "functional, organism-based"}, "[17]": {"test_system": "T cell", "assay": "Induction of monkey PBMC CD4+ T cells activation assessed as increase in CD25 expression up to 500 uM after 24 hrs by flow cytometry", "assay_type": "cell-based, Macaca mulatta", "conditions": "rhesus monkey"}, "[18]": {"test_system": "T cell", "assay": "Induction of monkey PBMC CD4+ T cells activation assessed as increase in CD69 expression up to 500 uM after 24 hrs by flow cytometry", "assay_type": "cell-based, Macaca mulatta", "conditions": "rhesus monkey"}, "[19]": {"test_system": "Human immunodeficiency virus", "assay": "Reactivation of HIV latent provirus in primary CD4+ T lymphocytes isolated from infected human PBMC assessed as increase in usRNA level at 10 to 100 uM after 24 hrs by RT-PCR analysis", "assay_type": "functional, organism-based"}},
  "note": "Activity calls are given as the source filed them. The calls are words filed in the database; no cut-off is given here.",
  "data": [
    {"smiles": "CCOC(=O)C1(C(F)(F)F)C(C#N)=C(N)Oc2c1c1ccccc1n2C(=O)OC(C)(C)C", "note": "(racemic)", "values": [
      {"measurement": "fold change (FC)", "setting": "[1]", "value": 2.6},
      {"measurement": "fold change (FC)", "setting": "[2]", "value": 1.8}
    ]},
    {"smiles": "CC(C)(C)OC(=O)n1c2c(c3ccccc31)C(C(F)(F)F)C(C#N)=C(N)O2", "note": "(configuration not stated)", "values": [
      {"measurement": "fold change (FC)", "setting": "[1]", "value": 0.25},
      {"measurement": "fold change (FC)", "setting": "[2]", "value": 3}
    ]},
    {"smiles": "CCOC(=O)C1(C(F)(F)F)C(C#N)=C(N)Oc2c1c1ccccc1n2Cc1ccccc1", "note": "(configuration not stated)", "values": [
      {"measurement": "Activity", "setting": "[3]", "value": "Toxic"},
      {"measurement": "fold change (FC)", "setting": "[1]", "value": 1.9}
    ]},
    {"smiles": "CCCC(CCC)C(=O)O", "note": "[VALPROIC ACID]", "values": [
      {"measurement": "Activity", "setting": "[4]", "value": 25.7, "unit": "%"},
      {"measurement": "Activity", "setting": "[5]", "value": "inactive"},
      {"measurement": "Activity", "setting": "[6]", "value": "inactive"},
      {"measurement": "Activity", "setting": "[7]", "value": "inactive"},
      {"measurement": "Activity", "setting": "[8]", "value": "inactive"}
    ]},
    {"smiles": "CCOC(=O)C1(C(F)(F)F)C(C#N)=C(N)Oc2c1c1ccccc1n2C", "note": "(configuration not stated)", "values": [
      {"measurement": "Activity", "setting": "[9]", "value": "Non-Toxic"},
      {"measurement": "fold change (FC)", "setting": "[1]", "value": 4.4},
      {"measurement": "Activity", "setting": "[10]", "value": 23, "unit": "%"},
      {"measurement": "Activity", "setting": "[11]", "value": 9.16, "unit": "%"},
      {"measurement": "fold change (FC)", "setting": "[2]", "value": 1.3},
      {"measurement": "Activity", "setting": "[12]", "value": "Non-Toxic"},
      {"measurement": "Activity", "setting": "[13]", "value": "Non-Toxic"},
      {"measurement": "Activity", "setting": "[14]", "value": "Non-Toxic"},
      {"measurement": "Activity", "setting": "[5]", "value": "Dose-dependent effect"},
      {"measurement": "Activity", "setting": "[15]", "value": "Non-Toxic"},
      {"measurement": "Activity", "setting": "[6]", "value": "Dose-dependent effect"},
      {"measurement": "Activity", "setting": "[16]", "value": "Active"},
      {"measurement": "Activity", "setting": "[17]", "value": "Non-Toxic"},
      {"measurement": "Activity", "setting": "[18]", "value": "Non-Toxic"},
      {"measurement": "Activity", "setting": "[19]", "value": "Active"}
    ]},
    {"smiles": "CCOC(=O)[C@@]1(C(F)(F)F)C(C#N)=C(N)Oc2c1c1ccccc1n2C(=O)OC(C)(C)C", "values": [
      {"measurement": "Activity", "setting": "[3]", "value": "Toxic"},
      {"measurement": "fold change (FC)", "setting": "[1]", "value": 1.5}
    ]},
    {"smiles": "CCOC(=O)C1(C(F)(F)F)C(C#N)=C(N)Oc2[nH]c3ccccc3c21", "note": "(configuration not stated)", "values": [
      {"measurement": "Activity", "setting": "[3]", "value": "Toxic"},
      {"measurement": "fold change (FC)", "setting": "[1]", "value": 2}
    ]},
    {"smiles": "COC(=O)C1(C(F)(F)F)C(C#N)=C(N)Oc2c1c1ccccc1n2C(=O)OC(C)(C)C", "note": "(configuration not stated)", "values": [
      {"measurement": "fold change (FC)", "setting": "[1]", "value": 2.1},
      {"measurement": "fold change (FC)", "setting": "[2]", "value": 2.6}
    ]}
  ]
}
